“And” between values parts separate entries of the source, which are not always exact repeats. Equal entries are not always repeated. Inconclusive results and toxic doses are left out.

The subject of the test is BDF1 mice, B16 melanoma ip, median survival T/C. Kind of test: NCI In Vivo Anticancer Drug Screen. Data for tumor model B16 Melanoma (intraperitoneal) in B6D2F1 (BDF1) mice. To be noted: endpoint: median survival time, higher = longer survival. The gist of the method: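 Survival or tumor size is measured after treatment of tumor-bearing mice and normalised to the vehicle-treated control group.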

Where [1] appears, read: dose: 25.0 mg/kg/injection, schedule: Q01DX009 (ip), vehicle: saline.
The mark [2] stands for this setting: dose: 25.0 mg/kg/injection, schedule: Q01DX009 (ip), vehicle: Klucel (hydroxypropylcellulose) (HPC).
Setting [3] is: dose: 50.0 mg/kg/injection, schedule: Q01DX009 (ip), vehicle: Klucel (hydroxypropylcellulose) (HPC).
[4] abbreviates: dose: 100.0 mg/kg/injection, schedule: Q01DX009 (ip), vehicle: Klucel (hydroxypropylcellulose) (HPC).
The mark [5] stands for this setting: dose: 100.0 mg/kg/injection, schedule: Q01DX009 (ip), vehicle: saline.
Setting [6] is: dose: 50.0 mg/kg/injection, schedule: Q01DX009 (ip), vehicle: saline with Tween-80.
Setting [7] is: dose: 100.0 mg/kg/injection, schedule: Q01DX009 (ip), vehicle: water.
The mark [8] stands for this setting: dose: 200.0 mg/kg/injection, schedule: Q01DX009 (ip), vehicle: water.

For `CN1CCCCC1CCN1c2ccccc2Sc2ccc(Cl)cc21` (stereo not given), the T/C is, setting by setting: (dose: 1.56 mg/kg/injection, schedule: Q01DX009 (ip), vehicle: saline) 109 % of control; (dose: 3.12 mg/kg/injection, schedule: Q01DX009 (ip), vehicle: saline) 102 % of control; (dose: 6.25 mg/kg/injection, schedule: Q01DX009 (ip), vehicle: saline) 100 % of control; (dose: 12.5 mg/kg/injection, schedule: Q01DX009 (ip), vehicle: saline) 103 % of control; under setting [1], 94 % of control.

On to `CCCCCCCCCCCCCCCC(=O)NNC(C)C`, for which the T/C was 96 % of control under setting [2], 90 % of control under setting [3] and 86 % of control under setting [4].

`O=C1N[C@@H]([C@H]2CC[C@H](Cl)CN2)C(=O)N[C@H]1[C@H]1CC[C@H](Cl)CN1`: the T/C was 107 % of control (dose: 0.05 mg/kg/injection, schedule: Q01DX009 (ip), vehicle: saline); 116 % of control (dose: 0.1 mg/kg/injection, schedule: Q01DX009 (ip), vehicle: saline); 103 % of control (dose: 0.5 mg/kg/injection, schedule: Q04DX003 (ip), vehicle: saline); 115 % of control (dose: 1.0 mg/kg/injection, schedule: Q01DX001 (ip), vehicle: saline); 119 % of control (dose: 1.0 mg/kg/injection, schedule: Q04DX003 (ip), vehicle: saline); 119 % of control (dose: 1.25 mg/kg/injection, schedule: Q01DX001 (ip), vehicle: saline). The T/C (dose: 2.0 mg/kg/injection, schedule: Q01DX001 (ip), vehicle: saline) was 120 % of control; the T/C (dose: 2.0 mg/kg/injection, schedule: Q04DX003 (ip), vehicle: saline) was 124 % of control; the T/C (dose: 2.5 mg/kg/injection, schedule: Q01DX001 (ip), vehicle: saline) was 114 % of control; the T/C (dose: 10.0 mg/kg/injection, schedule: Q01DX009 (ip), vehicle: alkali diluted with saline) was 30 % of control; the T/C (dose: 16.0 mg/kg/injection, schedule: Q01DX001 (ip), vehicle: saline) was 154 % of control; the T/C (dose: 20.0 mg/kg/injection, schedule: Q01DX009 (ip), vehicle: alkali diluted with saline) is 30 % of control. In addition, the T/C is, setting by setting: (dose: 40.0 mg/kg/injection, schedule: Q01DX009 (ip), vehicle: alkali diluted with saline) 27 % of control; (dose: 80.0 mg/kg/injection, schedule: Q01DX009 (ip), vehicle: alkali diluted with saline) 16 % of control.

Regarding `CN1CCC=C(C(=O)N2c3ccccc3CCc3ccccc32)C1`, the T/C was 97 % of control under setting [1]; 87 % of control (dose: 50.0 mg/kg/injection, schedule: Q01DX009 (ip), vehicle: saline); 91 % of control under setting [5].

As for `Cc1cc(N(CCOS(C)(=O)=O)CCOS(C)(=O)=O)ccc1C=Nc1ccc(-c2nc(Cc3ccccc3)sc2C)cc1`, the T/C was 165 % of control under setting [2], 174 % of control under setting [3] and 107 % of control under setting [4].

With `C1CC[N-]CC1.CC(=N\O)/C(C)=N/O.CC(=N\O)/C(C)=N/O.[CH3-].[Co+2]`, the T/C is 105 % of control under setting [2], 91 % of control under setting [3] and 88 % of control under setting [4].

As to `Nc1ccc2ccc(O)cc2c1`, the T/C runs as follows: (dose: 75.0 mg/kg/injection, schedule: Q04DX003 (ip), vehicle: saline with Tween-80) 105 % of control; (dose: 150.0 mg/kg/injection, schedule: Q04DX003 (ip), vehicle: saline with Tween-80) 95 % of control.

With `CCOc1ccccc1NC(=O)Nc1ccc(Cl)cc1`, the T/C is, setting by setting: under setting [4], 110 % of control; (dose: 200.0 mg/kg/injection, schedule: Q01DX009 (ip), vehicle: Klucel (hydroxypropylcellulose) (HPC)) 103 % of control; (dose: 400.0 mg/kg/injection, schedule: Q01DX009 (ip), vehicle: Klucel (hydroxypropylcellulose) (HPC)) 100 % of control.

As for `O[C@H](c1cc(C(F)(F)F)nc2c(C(F)(F)F)cccc12)[C@@H]1CCCCN1`, the T/C is, setting by setting: (dose: 0.78 mg/kg/injection, schedule: Q01DX009 (ip), vehicle: Klucel (hydroxypropylcellulose) (HPC)) 97 % of control; (dose: 1.56 mg/kg/injection, schedule: Q01DX009 (ip), vehicle: Klucel (hydroxypropylcellulose) (HPC)) 104 % of control; (dose: 3.12 mg/kg/injection, schedule: Q01DX009 (ip), vehicle: Klucel (hydroxypropylcellulose) (HPC)) 113 % of control; (dose: 4.5 mg/kg/injection, schedule: Q04DX003 (ip), vehicle: Klucel (hydroxypropylcellulose) (HPC)) 113 % of control; (dose: 6.25 mg/kg/injection, schedule: Q01DX009 (ip), vehicle: Klucel (hydroxypropylcellulose) (HPC)) 90 % of control; (dose: 9.0 mg/kg/injection, schedule: Q04DX003 (ip), vehicle: Klucel (hydroxypropylcellulose) (HPC)) 100 % of control.

In the case of `C(=NC1CCCCC1)c1c[nH]c2ccccc12`, the T/C by setting is: under setting [6], 100 % of control; (dose: 100.0 mg/kg/injection, schedule: Q01DX009 (ip), vehicle: saline with Tween-80) 97 % of control; (dose: 200.0 mg/kg/injection, schedule: Q01DX009 (ip), vehicle: saline with Tween-80) 97 % of control.

In the case of `CC1(C(=O)O)CCC2(C)CCC3(C)C(=CC(=O)C4C5(C)CCC(OC6OC(C(=O)O)C(O)C(O)C6OC6OC(C(=O)O)C(O)C(O)C6O)C(C)(C)C5CCC43C)C2C1` (stereo not given), the T/C by setting is: under setting [5], 106 % of control; (dose: 200.0 mg/kg/injection, schedule: Q01DX009 (ip), vehicle: saline) 101 % of control; (dose: 400.0 mg/kg/injection, schedule: Q01DX009 (ip), vehicle: saline) 102 % of control.

`COc1cccc(/C=c2\[nH]c(=O)/c(=C/c3cccc(OC)c3OC)[nH]c2=O)c1OC`: the T/C was 89 % of control (dose: 12.5 mg/kg/injection, schedule: Q01DX009 (ip), vehicle: Klucel (hydroxypropylcellulose) (HPC)); 99 % of control under setting [2]; 92 % of control and 96 % of control under setting [3].

Turning to `Brc1ccc(-c2csc(Nc3nc(-c4ccc(Br)cc4)cs3)n2)cc1`, the T/C by setting is: (dose: 12.5 mg/kg/injection, schedule: Q01DX009 (ip), vehicle: saline with Tween-80) 105 % of control; (dose: 25.0 mg/kg/injection, schedule: Q01DX009 (ip), vehicle: saline with Tween-80) 122 % of control; (dose: 25.0 mg/kg/injection, schedule: Q04DX003 (ip), vehicle: saline with Tween-80) 97 % of control; under setting [6], 89 % of control and 107 % of control; (dose: 50.0 mg/kg/injection, schedule: Q04DX003 (ip), vehicle: saline with Tween-80) 100 % of control; (dose: 100.0 mg/kg/injection, schedule: Q04DX003 (ip), vehicle: saline with Tween-80) 86 % of control and 94 % of control. Also, where the note is “dose: 200.0 mg/kg/injection, schedule: Q04DX003 (ip), vehicle: saline with Tween-80”, the T/C is 86 % of control.

In the case of `CC(=O)CC(C)(C)C1CCCCC1`, the T/C is 107 % of control (dose: 12.5 mg/kg/injection, schedule: Q01DX009 (ip), vehicle: water); 98 % of control (dose: 25.0 mg/kg/injection, schedule: Q01DX009 (ip), vehicle: water); 95 % of control (dose: 50.0 mg/kg/injection, schedule: Q01DX009 (ip), vehicle: water); 102 % of control under setting [7]; 88 % of control under setting [8].

As to `Nc1ncnc2c1ncn2C1OC(CO)C(O)C1O` (stereo not given), the T/C is 96 % of control (dose: 18.7 mg/kg/injection, schedule: Q01DX009 (ip), vehicle: saline); 99 % of control and 105 % of control (dose: 32.0 mg/kg/injection, schedule: Q01DX009 (ip), vehicle: Klucel (hydroxypropylcellulose) (HPC)); 99 % of control (dose: 37.5 mg/kg/injection, schedule: Q01DX009 (ip), vehicle: saline); 98 % of control and 101 % of control (dose: 64.0 mg/kg/injection, schedule: Q01DX009 (ip), vehicle: Klucel (hydroxypropylcellulose) (HPC)); 98 % of control (dose: 75.0 mg/kg/injection, schedule: Q01DX009 (ip), vehicle: saline); 99 % of control and 101 % of control (dose: 128.0 mg/kg/injection, schedule: Q01DX009 (ip), vehicle: Klucel (hydroxypropylcellulose) (HPC)). Also, the T/C (dose: 150.0 mg/kg/injection, schedule: Q01DX009 (ip), vehicle: saline) was 121 % of control; the T/C (dose: 256.0 mg/kg/injection, schedule: Q01DX009 (ip), vehicle: Klucel (hydroxypropylcellulose) (HPC)) is 97 % of control and 98 % of control; the T/C (dose: 512.0 mg/kg/injection, schedule: Q01DX009 (ip), vehicle: Klucel (hydroxypropylcellulose) (HPC)) was 93 % of control and 101 % of control; the T/C (dose: 600.0 mg/kg/injection, schedule: Q01DX009 (ip), vehicle: saline) is 123 % of control.

`CNC1C(OC2C(OC3C(O)C(O)C(N=C(N)N)C(O)C3N=C(N)N)OC(C)C2(O)C=O)OC(CO)C(O)C1O` (stereo not given): the T/C reads like this: under setting [7], 110 % of control; under setting [8], 108 % of control.
